{"source": "patent US9134245B2", "about": "“Cell-based antioxidant protection assay” (Natural Immune Systems, Inc., priority 2007, dated 2015)", "system": "red blood cells (RBC)", "assay": "CAP-e assay (RBC treated with test sample, washed, lysed; CM-H2DCFDA fluorescence after oxidative challenge)", "type": "cell-based, human", "settings": "for inhibition of oxidative damage: hydroxyl free radical generator H2O2 compared with peroxyl free radical generator AAPH: dose response curves, FIG. 2 and FIG. 3", "method": "Whole blood was collected from healthy volunteers. A double density gradient was prepared, where 3 ml of HISTOPAQUE® 1099 was overlaid with 3 ml of HISTOPAQUE® 1077. 5-6 ml of whole anticoagulated blood was layered on top of the double gradient and centrifuged for 25 minutes at 2400 rpm. The plasma, peripheral blood mononuclear cells, polymorphonuclear cells, and HISTOPAQUE® were removed using a transfer pipette. The remaining packed red blood cell fraction was washed three times in 10-14 ml PBS by centrifugation at 2400 rpm for 10 minutes. After the third wash the supernatant was removed, and the packed RBC were aliquoted for storage by pipetting 200 μl packed RBC into 10 ml PBS. The RBC aliquots were stored at 4-8° C. until use. The cells were used the same day or after up to 120 days of storage. For most routine testing, the RBC were typically prepared 2-4 weeks before use.\nThe antioxidant standard gallic acid (GA) was prepared by dissolving 85 mg of GA in 0.5 ml of 99.95% methanol. 0.2 ml of the dissolved GA was immediately diluted in 49.8 ml of PBS. Serial five-fold dilutions of the GA solution were prepared in PBS.\nThe serial dilutions of the extract and the GA standard were aliquoted in duplicate in a deep-well microplate. 100 μl of the RBC suspension was added to each well. The plate was incubated for 20 minutes at room temperature in the dark. Unabsorbed antioxidants were removed by washing the RBC three times in PBS by centrifugation for 2.5 minutes at 2400 rpm. The RBC pellets were lysed by incubation in 0.08 ml distilled water for 5 minutes at room temperature.\nThe fluorescent probe was prepared by reconstituting 50 μg CM-H2DCFDA in 0.2 ml anhydrous dimethyl sulfoxide, which was then added to 7.5 ml PS. After lysis of RBC was complete 70 μl of the lysed RBC were transferred to a black microplate and 50 μl of CM-H2DCFDA was added to each well (16.25 μM CM-H2DCFDA). The microplate was incubated for 20 minutes at room temperature or 37° C. in the dark. Then 50 μl H2O2 (0.0004% final concentration) or 50 μl AAPH (1 mg/ml final concentration) was added to each well. Wells exposed to H2O2 were incubated for 5 minutes at room temperature in the dark. Wells exposed to AAPH were incubated for one hour at room temperature or 37° C. in the dark. Fluorescence intensity was measured in a Tecan Spectrafluor fluorescence plate reader with excitation at 485 nm and emission at 535 nm.\nNegative controls were RBC which were not treated with a test sample or standard and were not exposed to an oxidative challenge. Positive controls were RBC which were not treated with a test sample or standard, but were exposed to an oxidative challenge. The percent inhibition of oxidative damage was calculated as [(fluorescence intensity of RBC treated with free radical generator−fluorescence intensity of RBC treated with test sample and free radical generator)/(fluorescence intensity of RBC treated with free radical generator−fluorescence intensity of untreated RBC)]×100.\nThe CAP-e value of a given test product is based on the comparison of the dose-response of inhibition of oxidative damage between the standard gallic acid (GA) and the test sample. For each test sample or compound, the IC50 for inhibition of oxidative damage is calculated. […] The CAP-e units of GA was set as 1,000 Gallic Acid Equivalents (GAE). […] The CAP-e value was expressed as CAP-e units/g of sample."}
{"smiles": "O=C(O)c1cc(O)c(O)c(O)c1", "note": "[GA, gallic acid]", "values": [{"measurement": "IC50", "setting": "Homo sapiens, Erythrocyte, determined from more than 60 independent experiments, read-out: IC50 for inhibition of oxidative damage", "value": 32, "unit": "µg/mL"}, {"measurement": "amount needed for the same level of protection, RBC from older person versus younger person", "setting": "RBC from a person over 85 years versus under 50 years of age, H2O2, FIG. 11", "value": "More GA was required"}, {"measurement": "inhibition of oxidative damage: hydroxyl free radical generator H2O2 compared with peroxyl free radical generator AAPH", "value": "equally effective"}]}
{"smiles": "Cc1c(C)c2c(c(C)c1O)CCC(C)(C(=O)O)O2", "note": "(centres unmarked) [TROLOX®, 6-hydroxy-2,5,7,8-tetramethylchroman-2-carboxylic acid]", "values": [{"measurement": "protection of RBC from damage from both free radical generators", "setting": "H2O2 and AAPH, at higher concentrations", "value": "protected RBC from damage"}, {"measurement": "inhibition of oxidative damage: hydroxyl free radical generator H2O2 compared with peroxyl free radical generator AAPH", "value": "more effective against hydroxyl free radicals at lower concentrations"}]}
